Legend:
[1] = Chronic toxicity of suppositories: indexes of peripheral blood; type: in vivo, rats; parameters: Thrombocytes: unit not given here
[2] = test system: embryonic fibroblasts of mouse NIH-3T3; experiment: Effect on endocellular pHi of fibroblasts (microspectrofluorimetry with FDA / BCECF-AM); type: cell-based; conditions: for rise of pHi: fibroblasts in an attached spread state; for change of pHi: medium DME without blood serum, 20 minutes; for increase of pHi of cytosol: medium with 10.0% blood serum, 20 minutes after addition
In short: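 Mouse NIH-3T3 embryonic fibroblasts, grown at 37° C. under 5.0% carbon dioxide in DMEM with 2.2 g/l sodium bicarbonate, 80.0 mkg/ml gentamicin and 10.0% embryonal veal serum, were loaded with FDA or BCECF-AM. Intracellular pH was measured by microspectrofluorimetry at 37° C., exciting at λ=490 nm and taking the ratio of emissions at λ=535 nm and λ=570 nm, averaged over 40-60 cells and calibrated with nigericyn in high-potassium buffers.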

[3] = male rats, suppositories rectally, 50 mg/kg, 1 month/2 months (one value given), control 0
[4] = male rats, suppositories rectally, 500 mg/kg, 1 month/2 months (one value given), control 0

Q: What does the source list for Nc1ccnc2c(=O)n([C@@H]3O[C@H](CO)[C@@H](O)[C@H]3O)[nH]c(=O)c12 [Compound 2, 4-amino-7-(β-D-ribofuranosile)pyrido[2,3-d]-6H-pyridazine-5,8-dione]?
A: Average volume of erythrocytes ([1]; rat, in vivo, 50 mg/kg): 83.4 ± 1.4 Mkm^3; Basophiles ([1]; rat, in vivo, 50 mg/kg): 0%; Juveniles ([1]; rat, in vivo, 50 mg/kg): 0%; Reticulocytes ([1]; rat, in vivo, 50 mg/kg): 2.8 ± 0.2/2.8 ± 0.2%; Average volume of erythrocytes ([1]; rat, in vivo, 500 mg/kg): 85.2 ± 1.2 Mkm^3; Basophiles ([1]; rat, in vivo, 500 mg/kg): 0%; Juveniles ([1]; rat, in vivo, 500 mg/kg): 0%

Q: With O=c1[nH]n([C@@H]2O[C@H](CO)[C@@H](O)[C@H]2O)c(=O)c2nc(O)cnc12.[Na].[Na] [Compound 23, disodium salt of 2-hydroxy-7-(β-D-ribofuranosile)pyrazine[2,3—Cl]-6H-pyridazine-5,8-dione] as the compound, how does the “rise of pHi” value ([2]; 2.0 mkg/ml, on the average) read?
A: 0.10 unit pHi

Q: What about the “rise of pHi” value ([2]; 20.0 mkg/ml, on the average) of the same compound?
A: 0.07 unit pHi

Q: And the “change of pHi” value ([2]; 0.02 mkg/ml)?
A: no effect was found

Q: And the “change of pHi” value ([2]; 0.2 mkg/ml)?
A: no effect was found

Q: And the “change of pHi” value ([2]; 2.0 mkg/ml, on the average)?
A: 0.08 unit pHi

Q: And the “change of pHi” value ([2]; 20.0 mkg/ml, on the average)?
A: 0.08 unit pHi

Q: And the “change of pHi” value ([2]; 200 mkg/ml)?
A: no effect was found

Q: What about the “change of pHi” value ([2]; 1000 mkg/ml) of the same compound?
A: no effect was found

Q: And the “increase of pHi of cytosol” value ([2]; 0.02 mkg/ml)?
A: do not initiate a change of pH

Q: And the “increase of pHi of cytosol” value ([2]; 0.2 mkg/ml, on the average)?
A: 0.1 unit pH

Q: And the “increase of pHi of cytosol” value ([2]; 2.0 mkg/ml, on the average)?
A: 0.12 unit pH

Q: What about the “increase of pHi of cytosol” value ([2]; 20.0 mkg/ml) of the same compound?
A: do not initiate a change of pH

Q: And the Basophiles [1, 3]?
A: 0%

Q: What about the Juveniles [1, 3] of the same compound?
A: 0%

Q: What about the Stab neutrophil ([1]; male rats, suppositories rectally, 50 mg/kg, 1 month, control 0.8 ± 0.4) of the same compound?
A: 1.1 ± 0.5%

Q: What about the REE ([1]; male rats, suppositories rectally, 50 mg/kg, 1 month, control 2.2 ± 0.4) of the same compound?
A: 1.7 ± 0.8 mm/h

Q: What about the Reticulocytes ([1]; male rats, suppositories rectally, 50 mg/kg, 1 month, control 2.8%0.3) of the same compound?
A: 2.7 ± 0.3%

Q: And the Eosinophiles ([1]; male rats, suppositories rectally, 50 mg/kg, 1 month, control 4.0 + 0.3)?
A: 3.6 ± 0.5%

Q: And the Erythrocytes ([1]; male rats, suppositories rectally, 50 mg/kg, 1 month, control 5.6 ± 0.1)?
A: 5.7 ± 0.1 mln/mm^3

Q: What about the Hemoglobin ([1]; male rats, suppositories rectally, 50 mg/kg, 1 month, control 10.5 ± 0.2) of the same compound?
A: 10.7 ± 0.1 mmol/L

Q: And the Leukocyte ([1]; male rats, suppositories rectally, 50 mg/kg, 1 month, control 17.4 ± 1.3)?
A: 15.5 ± 1.1 thousand/mm^3

Q: What about the Haematocrite ([1]; male rats, suppositories rectally, 50 mg/kg, 1 month, control 45.9 ± 1.7) of the same compound?
A: 47.7 ± 1.2%

Q: And the “Average volume of erythrocytes” value ([1]; male rats, suppositories rectally, 50 mg/kg, 1 month, control 81.4 ± 1.7)?
A: 82.7 ± 1.6 Mkm^3

Q: And the “Coagulation, time” value ([1]; male rats, suppositories rectally, 50 mg/kg, 1 month, control 152 ± 10.2)?
A: 150 ± 15 s

Q: And the Thrombocytes ([1]; male rats, suppositories rectally, 50 mg/kg, 1 month, control 707 ± 23)?
A: 659 ± 18

Q: And the REE ([1]; male rats, suppositories rectally, 50 mg/kg, 2 months, control 1.4 ± 0.2)?
A: 1.5 ± 0.1 mm/h

Q: And the Stab neutrophil ([1]; male rats, suppositories rectally, 50 mg/kg, 2 months, control 2.4 ± 0.4)?
A: 1.6 ± 0.2%

Q: And the Reticulocytes ([1]; male rats, suppositories rectally, 50 mg/kg, 2 months, control 2.9 ± 0.2)?
A: 2.8 ± 0.1%

Q: What about the Eosinophiles ([1]; male rats, suppositories rectally, 50 mg/kg, 2 months, control 4.4 + 1.2) of the same compound?
A: 4.0 ± 0.7%

Q: What about the Erythrocytes ([1]; male rats, suppositories rectally, 50 mg/kg, 2 months, control 6.1 ± 0.1) of the same compound?
A: 6.0 ± 0.2 mln/mm^3

Q: And the Hemoglobin ([1]; male rats, suppositories rectally, 50 mg/kg, 2 months, control 11.4 ± 0.2)?
A: 11.0 ± 0.1 mmol/L

Q: What about the Leukocyte ([1]; male rats, suppositories rectally, 50 mg/kg, 2 months, control 19.1 ± 1.9) of the same compound?
A: 17.6 ± 1.2 thousand/mm^3

Q: What about the Haematocrite ([1]; male rats, suppositories rectally, 50 mg/kg, 2 months, control 45.9 ± 1.8) of the same compound?
A: 46.5 ± 1.3%

Q: And the “Average volume of erythrocytes” value ([1]; male rats, suppositories rectally, 50 mg/kg, 2 months, control 74.6 + 1.9)?
A: 77.5 ± 1.7 Mkm^3

Q: What about the “Coagulation, time” value ([1]; male rats, suppositories rectally, 50 mg/kg, 2 months, control 316 ± 8) of the same compound?
A: 313 ± 17 s

Q: What about the Thrombocytes ([1]; male rats, suppositories rectally, 50 mg/kg, 2 months, control 593 ± 14) of the same compound?
A: 586 ± 28

Q: And the Basophiles [1, 4]?
A: 0%

Q: And the Juveniles [1, 4]?
A: 0%

Q: And the Stab neutrophil ([1]; male rats, suppositories rectally, 500 mg/kg, 1 month, control 0.8 ± 0.4)?
A: 1.0 ± 0.3%

Q: What about the REE ([1]; male rats, suppositories rectally, 500 mg/kg, 1 month, control 2.2 ± 0.4) of the same compound?
A: 2.0 ± 0.3 mm/h

Q: And the Reticulocytes ([1]; male rats, suppositories rectally, 500 mg/kg, 1 month, control 2.8%0.3)?
A: 3.1 ± 0.1%

Q: What about the Eosinophiles ([1]; male rats, suppositories rectally, 500 mg/kg, 1 month, control 4.0 + 0.3) of the same compound?
A: 3.3 ± 0.7%

Q: What about the Erythrocytes ([1]; male rats, suppositories rectally, 500 mg/kg, 1 month, control 5.6 ± 0.1) of the same compound?
A: 5.7 ± 0.2 mln/mm^3

Q: What about the Hemoglobin ([1]; male rats, suppositories rectally, 500 mg/kg, 1 month, control 10.5 ± 0.2) of the same compound?
A: 10.7 ± 0.2 mmol/L

Q: And the Leukocyte ([1]; male rats, suppositories rectally, 500 mg/kg, 1 month, control 17.4 ± 1.3)?
A: 16.4 ± 1.1 thousand/mm^3

Q: What about the Haematocrite ([1]; male rats, suppositories rectally, 500 mg/kg, 1 month, control 45.9 ± 1.7) of the same compound?
A: 47.9 ± 1.1%

Q: And the “Average volume of erythrocytes” value ([1]; male rats, suppositories rectally, 500 mg/kg, 1 month, control 81.4 ± 1.7)?
A: 83.5 ± 1.7 Mkm^3

Q: And the “Coagulation, time” value ([1]; male rats, suppositories rectally, 500 mg/kg, 1 month, control 152 ± 10.2)?
A: 156 ± 11 s

Q: And the Thrombocytes ([1]; male rats, suppositories rectally, 500 mg/kg, 1 month, control 707 ± 23)?
A: 678 ± 18

Q: And the REE ([1]; male rats, suppositories rectally, 500 mg/kg, 2 months, control 1.4 ± 0.2)?
A: 1.7 ± 0.3 mm/h

Q: And the Stab neutrophil ([1]; male rats, suppositories rectally, 500 mg/kg, 2 months, control 2.4 ± 0.4)?
A: 1.6 ± 0.2%

Q: What about the Reticulocytes ([1]; male rats, suppositories rectally, 500 mg/kg, 2 months, control 2.9 ± 0.2) of the same compound?
A: 3.4 ± 0.1%

Q: And the Eosinophiles ([1]; male rats, suppositories rectally, 500 mg/kg, 2 months, control 4.4 + 1.2)?
A: 3.8 ± 1.3%

Q: And the Erythrocytes ([1]; male rats, suppositories rectally, 500 mg/kg, 2 months, control 6.1 ± 0.1)?
A: 6.4 ± 0.2 mln/mm^3

Q: And the Hemoglobin ([1]; male rats, suppositories rectally, 500 mg/kg, 2 months, control 11.4 ± 0.2)?
A: 12.3 ± 0.3 mmol/L

Q: And the Leukocyte ([1]; male rats, suppositories rectally, 500 mg/kg, 2 months, control 19.1 ± 1.9)?
A: 20.1 ± 1.7 thousand/mm^3

Q: And the Haematocrite ([1]; male rats, suppositories rectally, 500 mg/kg, 2 months, control 45.9 ± 1.8)?
A: 49.4 ± 1.9%

Q: And the “Average volume of erythrocytes” value ([1]; male rats, suppositories rectally, 500 mg/kg, 2 months, control 74.6 + 1.9)?
A: 82.1 ± 1.4 Mkm^3

Q: What about the “Coagulation, time” value ([1]; male rats, suppositories rectally, 500 mg/kg, 2 months, control 316 ± 8) of the same compound?
A: 3171 ± 12 s

Q: What about the Thrombocytes ([1]; male rats, suppositories rectally, 500 mg/kg, 2 months, control 593 ± 14) of the same compound?
A: 628 ± 23

Q: Which results are given for Nc1ncc2c(=O)[nH][nH]c(=O)c2n1 [Compound 36, 2-amino-pyrimido[4,5-d]-6H-pyridazine-5,8-dione]?
A: rise of pHi ([2]; 2.0 mkg/ml, on the average): 0.10 unit pHi; rise of pHi ([2]; 20.0 mkg/ml, on the average): 0.07 unit pHi; change of pHi ([2]; 0.02 mkg/ml): no effect was found; change of pHi ([2]; 0.2 mkg/ml): no effect was found; change of pHi ([2]; 2.0 mkg/ml, on the average): 0.08 unit pHi; change of pHi ([2]; 20.0 mkg/ml, on the average): 0.08 unit pHi; change of pHi ([2]; 200 mkg/ml): no effect was found; change of pHi ([2]; 1000 mkg/ml): no effect was found; increase of pHi of cytosol ([2]; 0.02 mkg/ml): do not initiate a change of pH; increase of pHi of cytosol ([2]; 0.2 mkg/ml, on the average): 0.1 unit pH; increase of pHi of cytosol ([2]; 2.0 mkg/ml, on the average): 0.12 unit pH; increase of pHi of cytosol ([2]; 20.0 mkg/ml): do not initiate a change of pH

Source: patent publication US8592421B2, “Cyclic bioisosters of purine system derivatives and a pharmaceutical composition based thereon” (priority 2003, dated 2013)
